Data published in patent EP0207913A1, “Catechol carboxamides, process for their preparation, intermediates and a pharmaceutical preparation” (priority 1985, dated 1987).
Read-outs that look alike come from different tables or passages of the source.

System: apomorphine syndrome
Assay: In vivo test: apomorphine syndrome inhibition
Design: species or system Male Sprague-Dawley rats
Conditions: ip, rat, compound injected 60 min prior to apomorphine hydrochloride 1 mg/kg s.c.
Experimental: Male Sprague-Dawley rats (weighing 225-275 g) were used. […] The compounds were injected 60 min. prior to apomorphine hydrochloride (1 mg/kg) which was injected subcutaneously (s.c.) into the neck.
Directly after injection, the animals were placed in the cages, one in each cage. Scoring of the stereotypies were performed by two separate methods. The first scoring system was a modified version of the system introduced by Costall and Naylor (1973). The strength of the stereotype was scored on a 0-3 scale as follows:
In the second system the number of animals displaying hyperactivity caused by apomorphine were scored. Each group consisted of 6-8 animals. Saline controls were always run simultaneously. […] ED50's of the second scoring system are the doses which reduce the number of animals showing hyperactivity by 50 % over the observation period of ? min. The ED50 were calculated from log dose-response curves by the method of least squares from 4-6 dose levels with 6-8 animals per dose level.

[1] = dose reducing number of animals showing hyperactivity by 50 %, read-out: Reduction of hyperactivity ED50
[2] = dose reducing strength of stereotypies (0-3 scale) by 50 % over 60 min, read-out: Reduction of stereotypies ED50

SMILES	ED50 [1] [µmol/kg]	ED50 [2] [µmol/kg]
CCN1CCCC1CNC(=O)c1cc(Br)ccc1OC (centres unmarked) [ex 5 of US 3 342 (26)]	2.5	6.5
C=CCN1CCCC1CNC(=O)c1cc(Br)cc(OC)c1OC (centres unmarked)	0.02	0.12
CCN1CCCC1CNC(=O)c1c(O)c(Cl)cc(Cl)c1OC (centres unmarked) [a compound of EP 60235]	0.11	2.4
CCN1CCCC1CNC(=O)c1cc(Br)cc(OC)c1OC (centres unmarked)	0.0032	0.13
